Source: US20250197343A1, “CATIONIC LIPID” (TAKEDA PHARMACEUTICAL COMPANY LIMITED, priority 2021, published 2025)

How the values were obtained:
ICrl:CD1 (ICR) mice = assay: Mouse bioluminescence imaging evaluation (Test Example 1); type: in vivo; conditions: Luc DNA-encapsulated lipid nanoparticles 10 mL/kg i.v. to ICR mice; IVIS total flux 15 minutes after luciferin i.p.
Procedure: The Luc DNA-encapsulated lipid nanopatricles obtained in the aforesaid Production Example were intravenously administered to the tails of ICrl:CD1 (ICR) mice (10 mL/kg i.v.). After administration of the lipid particles, luciferin (15 mg/mL) was administered to the mice (10 mL/kg i.p.), which were loaded in an IVIS (in vivo imaging system) apparatus (manufactured by PerkinElmer, Inc.) under isoflurane inhalation anesthesia. Luminescence images of the mice were taken ventrally (in a supine position) 15 minutes after luciferin administration. The luminescence was digitized with the software of IVIS, followed by evaluation using the value of total flux. Higher luminescence means strong expression of the protein encoded by the DNA encapsulate in the lipid particle. In Table 2, higher luminescence is indicated on a scale of A, B and C in order. A represents luminescence of 3.0E+07 or more, B represents luminescence of 1.0E+0.7 or more and less than 3.0E+07, and C represents luminescence of less than 1.0E+07.

[1] = Particle size of Luc DNA-encapsulated lipid nanoparticles; type: physicochemical; conditions: cationic lipid:DPPC:cholesterol:GM-020=60:10.6:28:1.4 molar ratio
Source text: The particle size of the lipid particle (in the composition) can be measured by a known approach. For example, the particle size can be calculated as a Z-average particle size by the cumulant analysis of an autocorrelation function using a particle size measurement apparatus Zetasizer Nano ZS (Malvern Instruments) based on a dynamic light scattering measurement technique. The particle size (average particle size) of the lipid particle (in the composition) is, for example, 10 to 200 nm, preferably 60 to 170 nm.
(§1) A lipid mixture containing a cationic lipid of the Examples shown in Table 2 (cationic lipid:DPPC:cholesterol:GM-020=60:10.6:28:1.4, molar ratio) was dissolved in 90% of EtOH and 10% of water to obtain a 15.0 mg/ml lipid solution. Luciferase (luc) DNA (manufactured by Nature Technology Corp.) was dissolved in a 10 mM MES buffer solution (pH 5.5) to obtain a 0.3 mg/ml nucleic acid solution. The obtained lipid solution and nucleic acid solution were mixed at a flow rate ratio of 3 ml/min:6 ml/min at room temperature using NanoAssemblr (manufactured by Precision NanoSystems Inc.) to obtain a dispersion containing Luc DNA-encapsulated lipid nanoparticles. The obtained dispersion was dialyzed against water at room temperature for 1 hour and against PBS at 4° C. for 23 hours using Slyde-A-Lyzer (molecular weight cutoff: 20 K, Thermo Fischer Scientific Inc.). Subsequently, the dialysate was filtered through a 0.2 µm syringe filter (Iwaki). A 60% solution of sucrose in PBS was added thereto, and the mixture was preserved as a 20% solution of sucrose in PBS at −80° C. Analysis results of particle size and rate of encapsulation of the Luc DNA-encapsulated lipid nanoparticles are also shown in Table 2.

[2] = Rate of encapsulation of Luc DNA in lipid nanoparticles; type: physicochemical; design: unit: %; conditions: Luc DNA-encapsulated lipid nanoparticles; cationic lipid:DPPC:cholesterol:GM-020=60:10.6:28:1.4 molar ratio
Source text: The concentration and rate of encapsulation of the nucleic acid (e.g., siRNA or mRNA) in the composition of the present invention can be measured by a known approach. For example, the nucleic acid is fluorescently labeled using Quant-iT™ RiboGreen® (Invitrogen Corp.), and the fluorescence intensity can be measured to determine the concentration and the rate of encapsulation. The concentration of the nucleic acid in the composition can be calculated using a calibration curve prepared from aqueous nucleic acid solutions having known concentrations. The rate of encapsulation can be calculated on the basis of the difference in fluorescence intensity between the presence and absence of addition of Triton-X 100 (surfactant for disrupting the lipid particle). The concentration of the nucleic acid in the composition refers to the total concentration of a nucleic acid encapsulated in the lipid particle and an unencapsulated nucleic acid. The rate of encapsulation refers to the ratio of the nucleic acid encapsulated in the lipid particle to all nucleic acids in the composition.
as §1

| SMILES | Particle size (nm) [1] [nm] | Rate of encapsulation [2] | Luminescence (ICrl:CD1 (ICR) mice) |
| --- | --- | --- | --- |
| CCCCCCCCCCOC(=O)CCCCC(=O)OCC(COC(=O)CCCCC(=O)OCCCCCCCCCC)(COC(=O)CCCCC(=O)OCCCCCCCCCC)COC(=O)CCCN(C)C [Example 42, 1,1′-Didecyl 6,6′-[2-({[6-(dexyloxy)-6-oxohexanoyl]oxy}methyl)-2-({[4-(dimethylamino)butanoyl]oxy}methyl)propane-1,3-diyl] dihexanedioate] | 114.5 | 86.2 | C (C represents luminescence of less than 1.0E+07) |
| CCCCCCCCOC(=O)CCCCC(=O)OCC(COC(=O)CCCN(C)C)(COC(=O)CC(CCCCC)CCCCC)COC(=O)CC(CCCCC)CCCCC [Example 49, 2-({[4-(Dimethylamino)butanoyl]oxy}methyl)-3-[(3-pentyloctanoyl)oxy]-2-{[(3-pentyloctanoyl)oxy]methyl}propyl octyl hexanedioate] | 112.8 | 96.0 | B (B represents luminescence of 1.0E+0.7 or more and less than 3.0E+07) |
| CCCCCCCCCOC(=O)CCCCC(=O)OCC(COC(=O)CCCN(C)C)(COC(=O)CC(CCCCC)CCCCC)COC(=O)CC(CCCCC)CCCCC [Example 50, 2-({[4-(Dimethylamino)butanoyl]oxy}methyl)-3-[(3-pentyloctanoyl)oxy]-2-{[(3-pentyloctanoyl)oxy]methyl}propyl nonyl hexanedioate] | 86.5 | 98.2 | B (B represents luminescence of 1.0E+0.7 or more and less than 3.0E+07) |
| CCCCCOC(=O)CCCCCCCC(=O)OCC(COC(=O)CCCCCCCC(=O)OCCCCC)(COC(=O)CCCCCCCC(=O)OCCCCC)COC(=O)CCCN(C)C [Example 55, 1,1′-[2-({[4-(Dimethylamino)butanoyl]oxy}methyl)-2-({[9-oxo-9-(pentyloxy)nonanoyl]oxy}methyl)propane-1,3-diyl] 9,9′-dipentyl dinonanedioate] | 186.2 | 79.7 | C (C represents luminescence of less than 1.0E+07) |
| CCCCCCOC(=O)CCCCCCCC(=O)OCC(COC(=O)CCCN(C)C)(COC(=O)CC(CCCCC)CCCCC)COC(=O)CC(CCCCC)CCCCC [Example 63, 2-({[4-(Dimethylamino)butanoyl]oxy}methyl)-3-[(3-pentyloctanoyl)oxy]-2-{[(3-pentyloctanoyl)oxy]methyl}propyl hexyl nonanedioate] | 90.9 | 98.2 | C (C represents luminescence of less than 1.0E+07) |
| CCCCCCCOC(=O)CCCCC(=O)OCC(COC(=O)CCCCC(=O)OCCCCCCC)(COC(=O)CCCN(C)C)COC(=O)C(CCCCC)CCCCC [Example 83, 1,1′-[2-({[4-(Dimethylamino)butanoyl]oxy}methyl)-2-{[(2-pentylheptanoyl)oxy]methyl}propane-1,3-diyl] 6,6′-diheptyl dihexanedioate] | 148.7 | 92.9 | B (B represents luminescence of 1.0E+0.7 or more and less than 3.0E+07) |

Now from value to molecule, other results behind:

| Particle size (nm) [1] [nm] | Rate of encapsulation [2] | SMILES | Luminescence (ICrl:CD1 (ICR) mice) |
| --- | --- | --- | --- |
| 126.7 | 96.0 | CCCCCCCCOC(=O)CCCCC(=O)OCC(COC(=O)CCCCC(=O)OCCCCCCCC)(COC(=O)CCCN(C)C)COC(=O)CC(CCCCC)CCCCC [Example 43, 1,1′-[2-({[4-(Dimethylamino)butanoyl]oxy}methyl)-2-{[(3-pentyloctanoyl)oxy]methyl}propane-1,3-diyl] 6,6′-dioctyl dihexanedioate] | A (A represents luminescence of 3.0E+07 or more) |
| 132.3 | 96.3 | CCCCCCCCCOC(=O)CCCCC(=O)OCC(COC(=O)CCCCC(=O)OCCCCCCCCC)(COC(=O)CCCN(C)C)COC(=O)CC(CCCCC)CCCCC [Example 44, 1,1′-[2-({[4-(Dimethylamino)butanoyl]oxy}methyl)-2-{[(3-pentyloctanoyl)oxy]methyl}propane-1,3-diyl] 6,6′-dinonyl dihexanedioate] | A (A represents luminescence of 3.0E+07 or more) |
| 143.9 | 77.6 | CCCCCCCOC(=O)CCCCCCCC(=O)OCC(COC(=O)CCCCCCCC(=O)OCCCCCCC)(COC(=O)CCCN(C)C)COC(=O)CC(CCCCC)CCCCC [Example 60, 1,1′-[2-({[4-(Dimethylamino)butanoyl]oxy}methyl)-2-{[(3-pentyloctanoyl)oxy]methyl}propane-1,3-diyl] 9,9′-diheptyl dinonanedioate] | A (A represents luminescence of 3.0E+07 or more) |
| 97.2 | 92.6 | CCCCCCCCCCOC(=O)CC(=O)OCC(COC(=O)CCCN(C)C)(COC(=O)CC(=O)OCCCCCCCCCC)COC(=O)CC(CCCCC)CCCCC [Example 71, 1,1′-Didecyl 3,3′-[2-({[4-(dimethylamino)butanoyl]oxy}methyl)-2-{[(3-pentyloctanoyl)oxy]methyl}propane-1,3-diyl] dipropanedioate] | A (A represents luminescence of 3.0E+07 or more) |
| 128.7 | 73.5 | CCCCCC(CCCCC)CC(=O)OCC(COC(=O)CCCCCCCCCCC(=O)OC)(COC(=O)CCCCCCCCCCC(=O)OC)COC(=O)CCCN(C)C [Example 77, 1,1′-[2-({[4-(Dimethylamino)butanoyl]oxy}methyl)-2-{[(3-pentyloctanoyl)oxy]methyl}propane-1,3-diyl] 12,12′-dimethyl didodecanedioate] | B (B represents luminescence of 1.0E+0.7 or more and less than 3.0E+07) |
| 172.6 | 93.5 | CCCCCCCOC(=O)CCCCC(=O)OCC(COC(=O)CCCCC(=O)OCCCCCCC)(COC(=O)CCCN(C)C)COC(=O)CC(CCCC)CCCC [Example 84, 1,1′-[2-{[(3-Butylheptanoyl)oxy]methyl}-2-({[4-(dimethylamino)butanoyl]oxy}methyl)propane-1,3-diyl] 6,6′-diheptyl dihexanedioate] | B (B represents luminescence of 1.0E+0.7 or more and less than 3.0E+07) |
| 148.3 | 95.4 | CCCCCCCOC(=O)CCCCC(=O)OCC(COC(=O)CCCCC(=O)OCCCCCCC)(COC(=O)CCCN(C)C)COC(=O)CC(CCCCCC)CCCCCC [Example 85, 1,1′-[2-({[4-(Dimethylamino)butanoyl]oxy}methyl)-2-{[(3-hexylnonanoyl)oxy]methyl}propane-1,3-diyl] 6,6′-diheptyl dihexanedioate] | B (B represents luminescence of 1.0E+0.7 or more and less than 3.0E+07) |
| 111.9 | 96.5 | CCCCCCCOC(=O)CCCCC(=O)OCC(COC(=O)CCCCC(=O)OCCCCCCC)(COC(=O)CCCN(CC)C(C)C)COC(=O)CC(CCCCC)CCCCC [Example 91, 1,1′-(2-[({4-[Ethyl(propan-2-yl)amino]butanoyl}oxy)methyl]-2-{[(3-pentyloctanoyl)oxy]methyl}propane-1,3-diyl] 6,6′-diheptyl dihexanedioate] | B (B represents luminescence of 1.0E+0.7 or more and less than 3.0E+07) |
